Read-outs that look alike come from different tables or passages of the source.
Legend:
[1] = test system: microtubule network of HT-29 cells; assay: Immunofluorescence of microtubule network, HT-29; assay type: cell-based, human; conditions: HT-29, 175 nM, 72 h, confocal microscopy
Description: MCF7, HeLa, and HT-29 cells were grown on round glass coverslips coated with poly-L-lysine (12 mm diameter). To reach appropriate cell confluence, coverslips were manipulated in 6-well plates (3 coverslips/well) seeding 3 ml/well of cells in the exponential growth phase at 2 × 10^4 cells/mL. After 24 h incubation, cells were treated with compound 25 at 175 nM and incubated for 72 h. Cells were washed with PBS, fixed with 4% formaldehyde in PBS for 10 min, permeabilized with 0.5% Triton X-100 (Boehringer Mannheim, Ingelheimam Rhein, Germany) in PBS for 10 min, and blocked with 10% BSA in PBS for 30 min. Then, coverslips were incubated with anti-α-tubulin mouse monoclonal antibody (diluted 1:200 in 3% BSA/PBS) (Sigma-Aldrich Co.) and anti-SQSTM1/p62 rabbit monoclonal antibody (diluted 1:100 in 3% BSA/PBS) (Abcam) for 1 h 30 min. After PBS washing, coverslips were incubated with fluorescent secondary antibodies Alexa Fluor 488 goat anti-mouse IgG and Alexa Fluor 594 anti-rabbit (both diluted 1:400 in 1% BSA/PBS) (Molecular Probes, Invitrogen, Thermo Fischer Scientific) for 1 h in darkness. […] Cells were analysed by confocal microscopy using a LEICA SP5 microscope DMI-6000V model coupled to a LEICA LAS AF software computer.

MCF7 cells = assay: Cell cycle analysis (PI, flow cytometry), MCF7; assay type: cell-based, human
Description: MCF7, HeLa, and HT-29 cell cycle analyses were performed by quantifying the DNA content by flow cytometry. Cells in the exponential growth phase at 2 × 10^4 cells/mL were seeded in 24-well plates (1 ml/well). After 24 h incubation, cells were treated with compound 25 at 87.5 or 175 nM. After 24, 48, and 72 h treatments, live and dead cells were collected and fixed in ice-cold ethanol:PBS (7:3) and stored at 4 °C for later use. Cells were rehydrated with phosphate-buffered saline (PBS), treated with 100 µg/mL RNase A (Sigma-Aldrich Co., St. Louis, MO, USA), and stained overnight in darkness at room temperature with 50 µg/mL propidium iodide (PI) (Sigma-Aldrich Co.). Cell cycle profiles were then analysed by flow cytometry using BD Accuri™ C6 Plus Flow Cytometer (BD Biosciences, San José, CA, USA). Data were analysed with BD Accuri™ C6 Software (version 1.0.264.21, BD Biosciences, San José, CA, USA) and compared to control cells treated with 0.5% (v/v) DMSO. Compounds were dissolved in DMSO and the final solvent concentrations never exceeded 0.5% (v/v).

[2] = test system: HT-29 (human colon carcinoma) cells; assay: Cell growth assay (XTT), HT-29, alone or with verapamil; assay type: cell-based
[3] = MCF7, 175 nM (higher dose), 48 h
[4] = MCF7, 175 nM (higher dose), 72 h

IC50 ([2]; 72 h, in the presence of Pgp/MDR1 inhibitor verapamil (10 µM), read-out: Antiproliferative activity IC50 HT-29 Verap): 0.085 µM | IC50 ([2]; Homo sapiens, HT-29, 72 h drug exposure, XTT, read-out: Antiproliferative activity IC50 HT-29): 0.097 µM
SMILES: COc1ccc(S(=O)(=O)N(CC#N)c2cc(OC)c(Br)cc2OC)cc1 [Compound 25, N-(4-bromo-2,5-dimethoxyphenyl)-N-(cyanomethyl)-4-methoxybenzenesulphonamide]
Effect on microtubule network [1]: disrupted the microtubule network | Cells at G2/M phase (MCF7 cells; MCF7, 87.5 nM, 24 h): 66% | subG0/G1 population (MCF7 cells; MCF7, 87.5 nM, 24 h): 12% | Cells at G2/M phase (MCF7 cells; [3]): 55% | subG0/G1 population (MCF7 cells; [3]): 24% | Cells at G2/M phase (MCF7 cells; [4]): 58% | subG0/G1 population (MCF7 cells; [4]): 26% | Cells at G2/M phase (MCF7 cells; MCF7, 175 nM, 24 h): 60% | subG0/G1 population (MCF7 cells; MCF7, 175 nM, 24 h): 16%

From publication PMC8205030, “Methoxy and bromo scans on N-(5-methoxyphenyl) methoxybenzenesulphonamides reveal potent cytotoxic compounds, especially against the human breast adenocarcinoma MCF7 cell line” (Journal of Enzyme Inhibition and Medicinal Chemistry, 2021)
